Holding throughout (test): cells
One test has as its system MFH-ino. It is filed as functional, cell-based. The note with it: Homo sapiens.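 Further: growth inhibition of human MFH-ino cells, read out by a cell viability assay.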
Another test concerns SF-268. It is filed as functional, cell-based, Homo sapiens. Particulars: Homo sapiens, SF-268.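 Further: growth inhibition of SF-268 cells determined with a cell viability assay.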
For the next test, the system named is KM-H2. The format is functional, cell-based. The note with it: Homo sapiens.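 Further: growth inhibition of KM-H2 cells, read out by a cell viability assay.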
The next test concerns NOS-1. It is filed as functional, cell-based, Homo sapiens. The note with it: Homo sapiens, NOS-1.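 Further: growth inhibition of the human NOS-1 cell line, read out with a cell viability assay.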
Another test concerns DMS-114. The format is functional, cell-based, Homo sapiens. The note with it: Homo sapiens, DMS-114.
A further test relates to SK-MEL-2. The format is functional, cell-based, Homo sapiens. The note with it: Homo sapiens, SK-MEL-2.
For the next test, the system named is LS-123. It is filed as functional, cell-based, Homo sapiens. Particulars: Homo sapiens, LS-123.
For the next test, the system named is DSH1. It is filed as functional, cell-based, Homo sapiens. Particulars: Homo sapiens, DSH1.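 Further: growth inhibition of human DSH1 cells, measured with a cell viability readout.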
Another test relates to OVCAR-4. The format is functional, cell-based, Homo sapiens. The note with it: Homo sapiens, OVCAR-4.
The subject of the next test is NOMO-1. The format is functional, cell-based. The note with it: Homo sapiens.
The test system of the next test is ES4. The format is functional, cell-based, Homo sapiens. Particulars: Homo sapiens, ES4.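 Further: growth inhibition of human ES4 cells, read out by a cell viability assay.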
Another test concerns JAR. The format is functional, cell-based, Homo sapiens. The note with it: Homo sapiens, JAR.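 Further: growth inhibition of human JAR cells determined with a cell viability assay.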
The subject of another test is MSTO-211H. It is filed as functional, cell-based, Homo sapiens. The note with it: Homo sapiens, MSTO-211H.
In the next test the test system is CTB-1. It is filed as functional, cell-based. Particulars: Homo sapiens.
A further test deals with RCC10RGB. The format is functional, cell-based, Homo sapiens. Particulars: Homo sapiens, RCC10RGB.
For the next test, the system named is HOP-62. It is filed as functional, cell-based, Homo sapiens. The note with it: Homo sapiens, HOP-62.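 Further: cell growth inhibition determined with a viability assay.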
The test system of the next test is ES3. The format is functional, cell-based, Homo sapiens. Particulars: Homo sapiens, ES3.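 Further: growth inhibition of ES3 cells, read out with a cell viability assay.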
The next test concerns AM-38. The format is functional, cell-based, Homo sapiens. The note with it: Homo sapiens, AM-38.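 Further: growth inhibition of AM-38 cells of human origin, read out by a cell viability assay.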
A further test relates to HCC2157. It is filed as functional, cell-based. The note with it: Homo sapiens.

Description for CTB-1: SANGER: Inhibition of human CTB-1 cell growth in a cell viability assay.
Description for DSH1: SANGER: Inhibition of human DSH1 cell growth in a cell viability assay.
Description for ES4: SANGER: Inhibition of human ES4 cell growth in a cell viability assay.
Description for HCC2157: SANGER: Inhibition of human HCC2157 cell growth in a cell viability assay.
Description for HOP-62: SANGER: Inhibition of human HOP-62 cell growth in a cell viability assay.
Description for KM-H2: SANGER: Inhibition of human KM-H2 cell growth in a cell viability assay.
Description for MFH-ino: SANGER: Inhibition of human MFH-ino cell growth in a cell viability assay.
Description for MSTO-211H: SANGER: Inhibition of human MSTO-211H cell growth in a cell viability assay.
Description for NOS-1: SANGER: Inhibition of human NOS-1 cell growth in a cell viability assay.
Description for OVCAR-4: SANGER: Inhibition of human OVCAR-4 cell growth in a cell viability assay.
Description for RCC10RGB: SANGER: Inhibition of human RCC10RGB cell growth in a cell viability assay.
Description for SK-MEL-2: SANGER: Inhibition of human SK-MEL-2 cell growth in a cell viability assay.

Turning to `CC1=C2C[C@H]3[C@@H](CC=C4C[C@@H](O)CC[C@@]43C)[C@@H]2CC[C@]12O[C@@H]1C[C@H](C)CN[C@H]1[C@H]2C` [CYCLOPAMINE], the IC50 in the test on MFH-ino, with SF-268, in the test on KM-H2, with NOS-1, with DMS-114 and in the test with SK-MEL-2 was more than 16000 nM each time. Also, the concentration for half-maximal inhibition (IC50) with LS-123, with DSH1, in the test with OVCAR-4, with NOMO-1, in the test with ES4 and in the test on JAR was more than 16000 nM each time. In addition, the IC50 in the test on MSTO-211H, with CTB-1, with RCC10RGB, in the test with HOP-62, in the test with ES3 and with AM-38 was more than 16000 nM in each case. In addition, the IC50 – broadly, the concentration needed to halve the response being measured – in the test on HCC2157 is more than 16000 nM.
On to `CNC(=O)c1cc(Oc2ccc(NC(=O)Nc3ccc(Cl)c(C(F)(F)F)c3)cc2)ccn1` [SORAFENIB], for which the IC50 in the test on MFH-ino is 2920 nM; with SF-268 it was more than 4000 nM; with KM-H2, more than 4000 nM; in the test on NOS-1 it was 564 nM; in the test with DMS-114, more than 4000 nM; in the test with SK-MEL-2, more than 4000 nM. Also, the IC50 in the test with LS-123 was more than 4000 nM; in the test with DSH1, more than 4000 nM; with OVCAR-4, 2210 nM; in the test with NOMO-1, more than 4000 nM; with ES4, more than 4000 nM; with JAR it was more than 4000 nM. For the same molecule, the IC50 is more than 4000 nM with MSTO-211H; more than 4000 nM in the test on CTB-1; more than 4000 nM in the test on RCC10RGB; 851 nM in the test with HOP-62; more than 4000 nM in the test with ES3; more than 4000 nM with AM-38. Further, the IC50 in the test with HCC2157 is more than 4000 nM.
As to `Cc1cc(Nc2cc(N3CCN(C)CC3)nc(Sc3ccc(NC(=O)C4CC4)cc3)n2)n[nH]1` [TOZASERTIB], the IC50 is 9.9 nM in the test with MFH-ino; more than 2000 nM with SF-268; more than 2000 nM in the test on KM-H2; more than 2000 nM in the test with NOS-1; more than 2000 nM with DMS-114; more than 2000 nM with SK-MEL-2. Further, the IC50 in the test with LS-123 is more than 2000 nM; with DSH1, more than 2000 nM; in the test on OVCAR-4 it was more than 2000 nM; in the test with NOMO-1 it was more than 2000 nM; with ES4 it was 911 nM; in the test with JAR, more than 2000 nM. For the same molecule, the IC50 in the test with MSTO-211H is more than 2000 nM; with CTB-1, more than 2000 nM; with RCC10RGB it was more than 2000 nM; in the test with HOP-62, 863 nM; in the test with ES3 it was more than 2000 nM; in the test on AM-38, more than 2000 nM. The same molecule yielded an IC50 in the test on HCC2157 of more than 2000 nM.
Turning to `CO[C@H]1C[C@@H]2CC[C@@H](C)[C@@](O)(O2)C(=O)C(=O)N2CCCC[C@H]2C(=O)O[C@H]([C@H](C)C[C@@H]2CC[C@@H](O)[C@H](OC)C2)CC(=O)[C@H](C)/C=C(\C)[C@@H](O)[C@@H](OC)C(=O)[C@H](C)C[C@H](C)/C=C/C=C/C=C/1C` [SIROLIMUS], the IC50 in the test on MFH-ino was more than 100 nM; with SF-268, more than 100 nM; with KM-H2, more than 100 nM; in the test on NOS-1 it was 0.871 nM; with DMS-114, more than 100 nM; in the test on SK-MEL-2, more than 100 nM. Further, the IC50 in the test with LS-123 is more than 100 nM; in the test with DSH1, more than 100 nM; with OVCAR-4 it was more than 100 nM; in the test with NOMO-1 it was more than 100 nM; in the test with ES4, less than 0.391 nM; in the test with JAR, more than 100 nM. Also, the IC50 with MSTO-211H, with CTB-1, in the test with RCC10RGB, with HOP-62, in the test on ES3 and in the test on AM-38 was more than 100 nM each time. In the test on HCC2157, this molecule came in with an IC50 of more than 100 nM.
As to `O=C(/C=C/c1ccccc1)NC(NC(=S)Nc1cccc2cccnc12)C(Cl)(Cl)Cl` (stereo not given) [SALUBRINAL], the IC50 with MFH-ino, in the test with SF-268, with KM-H2, with NOS-1, with DMS-114 and in the test with SK-MEL-2 was more than 16000 nM in each case. Also, the IC50 in the test on LS-123 was more than 16000 nM; in the test on DSH1, more than 16000 nM; in the test with OVCAR-4, 14800 nM; in the test on NOMO-1, more than 16000 nM; in the test with ES4, more than 16000 nM; with JAR it was more than 16000 nM. The half-inhibitory concentration (IC50) in the test with MSTO-211H, in the test with CTB-1, with RCC10RGB, in the test with HOP-62, in the test on ES3 and in the test with AM-38 was more than 16000 nM in each case. For the same molecule, the IC50 in the test with HCC2157 was more than 16000 nM.
As for `CS(=O)(=O)CCNCc1ccc(-c2ccc3ncnc(Nc4ccc(OCc5cccc(F)c5)c(Cl)c4)c3c2)o1` [LAPATINIB], the concentration for half-maximal inhibition (IC50) with MFH-ino, with SF-268, in the test on KM-H2, with NOS-1, in the test on DMS-114 and with SK-MEL-2 was more than 2000 nM in each case. The IC50 with LS-123 is more than 2000 nM; in the test on DSH1 it was 94 nM; with OVCAR-4, more than 2000 nM; in the test with NOMO-1 it was more than 2000 nM; in the test with ES4, more than 2000 nM; with JAR, more than 2000 nM. For the same molecule, the IC50 in the test on MSTO-211H, with CTB-1, in the test with RCC10RGB, in the test with HOP-62, with ES3 and in the test on AM-38 was more than 2000 nM each time. In addition, in the test with HCC2157, the half-maximal inhibitory concentration (IC50) is more than 2000 nM.
Turning to `CCC(=O)N1CCN(c2ccc(-n3c(=O)ccc4cnc5ccc(-c6cnc7ccccc7c6)cc5c43)cc2C(F)(F)F)CC1` [TORIN1], the IC50 in the test on MFH-ino was 28.1 nM; in the test with SF-268 it was 98.2 nM; with KM-H2 it was more than 1200 nM; with NOS-1 it was 2.42 nM; with DMS-114, 240 nM; in the test on SK-MEL-2, 464 nM. The IC50 in the test on LS-123 is 59.4 nM; in the test with DSH1 it was 71.7 nM; with OVCAR-4, 30.9 nM; with NOMO-1, 400 nM; in the test with ES4, 83 nM; with JAR it was 116 nM. Besides, the IC50 in the test with MSTO-211H is more than 1200 nM; in the test on CTB-1 it was 222 nM; in the test with RCC10RGB it was more than 1200 nM; in the test on HOP-62, 35.6 nM; in the test on ES3, more than 1200 nM; in the test on AM-38, more than 1200 nM. Besides, the IC50 in the test with HCC2157 was found to be 340 nM.
As for `C=C1C(=O)O[C@@H]2C3O[C@]3(C)CC/C=C(\C)CC[C@@H]12` (stereo not given in full), the IC50 in the test on MFH-ino, with SF-268, with KM-H2, in the test with NOS-1, in the test with DMS-114 and in the test on SK-MEL-2 was more than 5000 nM throughout. The IC50 in the test with LS-123, with DSH1, in the test on OVCAR-4, with NOMO-1, in the test with ES4 and in the test on JAR was more than 5000 nM in each case. Also, the IC50 with MSTO-211H was more than 5000 nM; in the test with CTB-1 it was 3850 nM; with RCC10RGB, more than 5000 nM; with HOP-62, more than 5000 nM; in the test on ES3, more than 5000 nM; with AM-38, more than 5000 nM. The molecule also registered an IC50 in the test on HCC2157 of more than 5000 nM.
In the case of `CCc1nc(N)nc(N)c1-c1ccc(Cl)cc1` [PYRIMETHAMINE], the IC50 with MFH-ino is more than 20000 nM; in the test with SF-268 it was 3600 nM; in the test on KM-H2 it was 12000 nM; with NOS-1 it was 6660 nM; in the test on DMS-114 it was more than 20000 nM; in the test on SK-MEL-2 it was more than 20000 nM. The IC50 in the test with LS-123 was more than 20000 nM; with DSH1, 4980 nM; with OVCAR-4 it was 4150 nM; with NOMO-1 it was more than 20000 nM; in the test on ES4, 3120 nM; in the test with JAR it was more than 20000 nM. For the same molecule, the IC50 with MSTO-211H is 7640 nM; with CTB-1 it was more than 20000 nM; with RCC10RGB, more than 20000 nM; in the test with HOP-62, 5020 nM; with ES3, more than 20000 nM; with AM-38 it was more than 20000 nM. In addition, the IC50 in the test on HCC2157 is more than 20000 nM.
`CN1CCN(CCOc2cc(OC3CCOCC3)c3c(Nc4c(Cl)ccc5c4OCO5)ncnc3c2)CC1` [SARACATINIB]: the IC50 in the test on MFH-ino was 1780 nM; in the test on SF-268 it was more than 2000 nM; in the test on KM-H2 it was more than 2000 nM; in the test with NOS-1, 605 nM; with DMS-114 it was more than 2000 nM; in the test on SK-MEL-2, more than 2000 nM. Moreover, the IC50 in the test on LS-123, with DSH1, in the test with OVCAR-4, in the test with NOMO-1, in the test with ES4 and with JAR was more than 2000 nM in each case. For the same molecule, the IC50 in the test with MSTO-211H is more than 2000 nM; with CTB-1, more than 2000 nM; in the test with RCC10RGB it was more than 2000 nM; in the test on HOP-62 it was 1500 nM; in the test with ES3, more than 2000 nM; in the test on AM-38, more than 2000 nM. Besides, the IC50 with HCC2157 was more than 2000 nM.

Values taken from ChEMBL document CHEMBL1201861, “Genomics of Drug Sensitity in Cancer screening data, Wellcome Trust Sanger Institute”.
